Type in all cases: cell-based
What all share (parameters): key: —: the symbol “-” corresponds to the absence of color or intensity; 0 corresponds to no activity; 0.1 corresponds to a trace of color; 0.5 corresponds to very pale coloration; 1 corresponds to clear but low-intensity coloration; 1.5 corresponds to a degree of coloration intermediate between scores 1 and 2; 2 corresponds to clear coloration of moderate intensity; 2.5 corresponds to a degree of coloration intermediate between scores 2 and 3; 3 corresponds to intense coloration; 3.5 corresponds to a degree of coloration intermediate between scores 3 and 4; 4 corresponds to very intense coloration

For assay [1], the system named is Listeria monocytogenes 092. Put plainly: Experiment 3: detecting an esterase activity in liquid medium (API-type strips). The note with it: 37° C. On the procedure: (§1) In Table 1 above, as in the following Tables, C represents the color of the colonies after incubation, I represents the intensity of the color, and the symbol “-” corresponds to the absence of color or intensity; finally, IT defines the incubation time. It should be noted that the intensity of the color is scored on an arbitrary scale but one which is consistent for all the biological specimens and media tested. This scale is valid for this experiment as well as all those that follow. It can be defined in the following way: • 0 corresponds to no activity, • 0.1 corresponds to a trace of color, • 0.5 corresponds to very pale coloration, • 1 corresponds to clear but low-intensity coloration, • 1.5 corresponds to a degree of coloration intermediate between scores 1 and 2, • 2 corresponds to clear coloration of moderate intensity, • 2.5 corresponds to a degree of coloration intermediate between scores 2 and 3, • 3 corresponds to intense coloration, • 3.5 corresponds to a degree of coloration intermediate between scores 3 and 4, • 4 corresponds to very intense coloration.
(§2) These substrates were lyophilized in the wells of API-type strips (Registered Trademark). Before use, the substrates contained in the wells were resuspended in an agar-free Columbia-type inoculation medium. These wells were then inoculated with a suspension (density=2 McFarland) of microorganisms taken from either the Applicant's own collection or the ATCC. The strips were incubated for 8 hours at 37° C. The colonies which grew were examined by eye after 4, 6 and 8 hours of incubation.
(§3) The intensity of the color of the colonies was recorded.

Another assay relates to Listeria innocua 166. The assay is described as above. The following applies: 37° C. On the procedure: as §1, §2, §3
The next assay has as its system Listeria welshimeri 023. The description is as above. The following applies: 37° C. The procedure:
as §1, §2, §3

For a further assay, the system named is Listeria ivanovii 018. The description is as above. The note with it: 37° C. On the procedure: as §1, §2, §3
Another assay relates to Listeria innocua 171. Described as above. The note with it: 37° C. The procedure:
as §1, §2, §3

Assay [2] relates to Listeria grayi ATCC 19120. Put plainly: Experiment 1: esterase substrates, same chromogenic marker, fatty acids of different chain lengths. The note with it: 37° C., substrate 250 mg/l. The procedure:
A stock solution of each substrate at a concentration of 40 g/l was made up in a mixture of 40% Dimethylsulfoxide and 60% Polyoxyethylenesorbitan Monolaurate (Tween 20). An appropriate volume was added to three Columbia-type media while cooling to give a final substrate concentration of 250 mg/l. These dishes were divided into three areas and then each area was inoculated with a suspension (density=0.5 McFarland) of microorganisms taken from either the Applicant's own collection or the ATCC. The dishes were incubated for 48 hours at 37° C. The colonies which grew were examined by eye after 24 and 48 hours of incubation. Both the color and the intensity of the color of the colonies were recorded.
as §1

As to `CCCCCCCC(=O)Oc1c[nH]c2cc(Cl)ccc12` [Pink-C8, 6-Chloro-3-indolyl octanoate], the “I (intensity of the color)” value (in assay [1] (IT 4 h); in assay [1] (IT 6 h); in assay [1] (IT 8 h); in the assay on Listeria innocua 166 (IT 4 h); in the assay with Listeria innocua 166 (IT 6 h); in the assay on Listeria innocua 166 (IT 8 h)) was “—” each time. Moreover, the “I (intensity of the color)” value in the assay on Listeria welshimeri 023 (IT 4 h), in the assay on Listeria welshimeri 023 (IT 6 h), in the assay on Listeria welshimeri 023 (IT 8 h), in the assay with Listeria ivanovii 018 (IT 4 h), in the assay with Listeria ivanovii 018 (IT 6 h) and with Listeria ivanovii 018 (IT 8 h) was “—” in each case. The “I (intensity of the color)” value in the assay with Listeria innocua 171 (IT 4 h), with Listeria innocua 171 (IT 6 h) and with Listeria innocua 171 (IT 8 h) was “—” each time.
`CCCCCCCC(=O)Oc1c[nH]c2ccc(Br)c(Cl)c12` [X-C8, 5-Bromo-4-chloro-3-indolyl octanoate]: the “I (intensity of the color)” value in assay [1] (IT 4 h) is listed as “—”; in assay [1] (IT 6 h), 1; in assay [1] (IT 8 h) it was 1.5; in the assay with Listeria innocua 166 (IT 4 h), “—”; in the assay on Listeria innocua 166 (IT 6 h) it was “—”; in the assay with Listeria innocua 166 (IT 8 h), “—”. In addition, the “I (intensity of the color)” value with Listeria welshimeri 023 (IT 4 h), with Listeria welshimeri 023 (IT 6 h), in the assay with Listeria welshimeri 023 (IT 8 h), with Listeria ivanovii 018 (IT 4 h), in the assay with Listeria ivanovii 018 (IT 6 h) and with Listeria ivanovii 018 (IT 8 h) was “—” in each case. The “I (intensity of the color)” value in the assay with Listeria innocua 171 (IT 4 h), in the assay with Listeria innocua 171 (IT 6 h) and in the assay with Listeria innocua 171 (IT 8 h) was “—” each time.
`CCCCCCCCCC(=O)Oc1c[nH]c2ccc(Br)cc12` [Blue-C10, 5-Bromo-3-indolyl decanoate]: in assay [2] (IT 24 h), the “C (color of the colonies)” value is reported as “—” and the “I (intensity of the color)” value is “—”. For the same compound, in assay [2] (IT 48 h), the “C (color of the colonies)” value is “—” and the “I (intensity of the color)” value is on record as “—”.
Take `CCCCCCCC(=O)Oc1c[nH]c2ccc(Br)cc12` [Blue-C8, 5-Bromo-3-indolyl octanoate]: the “C (color of the colonies)” value in assay [2] (IT 24 h) and in assay [2] (IT 48 h) was “—” in each case. The “I (intensity of the color)” value in assay [2] (IT 24 h) and in assay [2] (IT 48 h) was “—” throughout.
For the compound `CCCCCCCCC(=O)Oc1c[nH]c2ccc(Br)cc12` [Blue-C9, 5-Bromo-3-indolyl nonanoate], the “C (color of the colonies)” value in assay [2] (IT 24 h) and in assay [2] (IT 48 h) was “—” throughout. In addition, the “I (intensity of the color)” value in assay [2] (IT 24 h) and in assay [2] (IT 48 h) was “—” each time.
With `CCCCCCCC(=O)Oc1c[nH]c2cc(Cl)c(Br)cc12` [Magenta-C8, 5-Bromo-6-chloro-3-indolyl octanoate], the “I (intensity of the color)” value is reported as “—” in assay [1] (IT 4 h); “—” in assay [1] (IT 6 h); 0.5 in assay [1] (IT 8 h); “—” in the assay on Listeria innocua 166 (IT 4 h); “—” with Listeria innocua 166 (IT 6 h); “—” with Listeria innocua 166 (IT 8 h). Moreover, the “I (intensity of the color)” value in the assay on Listeria welshimeri 023 (IT 4 h), in the assay on Listeria welshimeri 023 (IT 6 h), in the assay on Listeria welshimeri 023 (IT 8 h), in the assay on Listeria ivanovii 018 (IT 4 h), in the assay on Listeria ivanovii 018 (IT 6 h) and with Listeria ivanovii 018 (IT 8 h) was “—” in each case. The “I (intensity of the color)” value with Listeria innocua 171 (IT 4 h), in the assay with Listeria innocua 171 (IT 6 h) and in the assay on Listeria innocua 171 (IT 8 h) was “—” each time.

Source of the values: patent US7407775B2, “Method for identifying Listeria monocytogenes and culture medium” (Biomerieux S.A., priority 2000, dated 2008).
